Measured values from the supplement of paper PMC11061612.

Legend:
Gemcitabine = compound: Nc1ccn([C@@H]2O[C@H](CO)[C@@H](O)C2(F)F)c(=O)n1 [Gemcitabine]; details: max 0.3 µM
Procedure, shortened: (§1)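 Following 24 hours at 37°C and 5% CO2, cancer cell lines in 1536-well plates with 7.5 μl DMEM/F12 or RPMI and 10% FBS were dosed for 72 hours, final DMSO typically being 0.2%. CellTiter-Glo 2.0 luminescence, scaled between blank-well and DMSO-well means, gave the viability readout. Dose responses were fitted to a two-parameter logistic curve with a non-linear mixed effects model, and the single-agent IC50 was derived from this fit.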

Carboplatin = compound: C1CC(C1)(C(=O)[O-])C(=O)[O-].N.N.[Pt+2] [Carboplatin]; details: max 10 µM
Procedure, shortened: as §1

SN-38 = compound: CCc1c2c(nc3ccc(O)cc13)-c1cc3c(c(=O)n1C2)COC(=O)[C@]3(O)CC [SN-38]; details: max 0.3 µM
Procedure, shortened: as §1

Paclitaxel = compound: CC(=O)O[C@H]1C(=O)[C@@]2(C)[C@H]([C@H](OC(=O)c3ccccc3)[C@]3(O)C[C@H](OC(=O)[C@H](O)[C@@H](NC(=O)c4ccccc4)c4ccccc4)C(C)=C1C3(C)C)[C@]1(OC(C)=O)CO[C@@H]1C[C@@H]2O [Paclitaxel]; details: max 3 µM
Procedure, shortened: as §1

Palbociclib = compound: CC(=O)c1c(C)c2cnc(Nc3ccc(N4CCNCC4)cn3)nc2n(C2CCCC2)c1=O [Palbociclib]; details: max 10 µM
Procedure, shortened: as §1

Venetoclax = compound: CC1(C)CCC(CN2CCN(c3ccc(C(=O)NS(=O)(=O)c4ccc(NCC5CCOCC5)c([N+](=O)[O-])c4)c(Oc4cnc5[nH]ccc5c4)c3)CC2)=C(c2ccc(Cl)cc2)C1 [Venetoclax]; details: max 1 µM
Procedure, shortened: as §1

MK-2206 = compound: NC1(c2ccc(-c3nc4ccn5c(=O)[nH]nc5c4cc3-c3ccccc3)cc2)CCC1 [MK-2206]; details: max 10 µM
Procedure, shortened: as §1

Selumetinib = compound: Cn1cnc2c(F)c(Nc3ccc(Br)cc3Cl)c(C(=O)NOCCO)cc21 [Selumetinib]; details: max 10 µM
Procedure, shortened: as §1

AZD5363 = compound: C1CN(CCC1(C(=O)N[C@@H](CCO)C2=CC=C(C=C2)Cl)N)C3=NC=NC4=C3C=CN4 [AZD5363]; details: max 10 µM
Procedure, shortened: as §1

AZD1775 = compound: C=CCn1c(=O)c2cnc(Nc3ccc(N4CCN(C)CC4)cc3)nc2n1-c1cccc(C(C)(C)O)n1 [AZD1775]; details: max 3 µM
Procedure, shortened: as §1

AZD1390 = compound: CC(C)n1c(=O)n(C)c2cnc3cc(F)c(-c4ccc(OCCCN5CCCCC5)nc4)cc3c21 [AZD1390]; details: max 0.3 µM
Procedure, shortened: as §1

Crizotinib = compound: C[C@@H](Oc1cc(-c2cnn(C3CCNCC3)c2)cnc1N)c1c(Cl)ccc(F)c1Cl [Crizotinib]; details: max 10 µM
Procedure, shortened: as §1

Savolitinib = compound: C[C@@H](c1ccc2nccn2c1)n1nnc2ncc(-c3cnn(C)c3)nc21 [Savolitinib]; details: max 1 µM
Procedure, shortened: as §1

[1] = compound: O=C(Nc1ccc2[nH]nc(-c3ccncc3)c2c1)[C@@H]1CCN(CC(=O)N2CCN(c3ccc(-c4ncccn4)cc3)CC2)C1; details: max 5 µM
Procedure, shortened: as §1

SG3199 = compound: CC1=CN2[C@@H](C1)C=NC3=CC(=C(C=C3C2=O)OC)OCCCCCOC4=C(C=C5C(=C4)N=C[C@@H]6CC(=CN6C5=O)C)OC [SG3199]; details: max 0.001 µM
Procedure, shortened: as §1

AZD5991 = compound: Cc1c2c(nn1C)CSCc1cc(n(C)n1)CSc1cc(c3ccccc3c1)OCCCc1c(C(=O)O)n(C)c3c-2c(Cl)ccc13 [AZD5991]; details: max 1 µM
Procedure, shortened: as §1

Trametinib = compound: CC(=O)Nc1cccc(-n2c(=O)n(C3CC3)c(=O)c3c(Nc4ccc(I)cc4F)n(C)c(=O)c(C)c32)c1 [Trametinib]; details: max 1 µM
Procedure, shortened: as §1

Lapatinib = compound: CS(=O)(=O)CCNCc1ccc(-c2ccc3ncnc(Nc4ccc(OCc5cccc(F)c5)c(Cl)c4)c3c2)o1 [Lapatinib]; details: max 10 µM
Procedure, shortened: as §1

AZD6738 = compound: C[C@@H]1COCCN1C2=NC(=NC(=C2)C3(CC3)[S@](=N)(=O)C)C4=C5C=CNC5=NC=C4 [AZD6738]; details: max 10 µM
Procedure, shortened: as §1

Olaparib = compound: O=C(c1cc(Cc2n[nH]c(=O)c3ccccc23)ccc1F)N1CCN(C(=O)C2CC2)CC1 [Olaparib]; details: max 10 µM
Procedure, shortened: as §1

Prexasertib = compound: COc1cccc(OCCCN)c1-c1cc(Nc2cnc(C#N)cn2)n[nH]1 [Prexasertib]; details: max 1 µM
Procedure, shortened: as §1

Gefitinib = compound: COc1cc2ncnc(Nc3ccc(F)c(Cl)c3)c2cc1OCCCN1CCOCC1 [Gefitinib]; details: max 10 µM
Procedure, shortened: as §1

AZD2811 = compound: CCN(CCO)CCCOc1ccc2c(Nc3cc(CC(=O)Nc4cccc(F)c4)[nH]n3)ncnc2c1 [AZD2811]; details: max 1 µM
Procedure, shortened: as §1

AZD0156 = compound: CN(C)CCCOc1ccc(-c2ccc3ncc4c(c3c2)n(C2CCOCC2)c(=O)n4C)cn1 [AZD0156]; details: max 3 µM
Procedure, shortened: as §1

5-Fluorouracil = compound: O=c1[nH]cc(F)c(=O)[nH]1 [5-Fluorouracil]; details: max 20 µM
Procedure, shortened: as §1

AZD5153 = compound: COc1nnc2ccc(N3CCC(c4ccc(OCCN5CCN(C)C(=O)[C@H]5C)cc4)CC3)nn12 [AZD5153]; details: max 1 µM
Procedure, shortened: as §1

Taselisib = compound: Cc1nc(-c2cn3c(n2)-c2ccc(-c4cnn(C(C)(C)C(N)=O)c4)cc2OCC3)n(C(C)C)n1 [Taselisib]; details: max 10 µM
Procedure, shortened: as §1

Dasatinib = compound: CC1=C(C(=CC=C1)Cl)NC(=O)C2=CN=C(S2)NC3=CC(=NC(=N3)C)N4CCN(CC4)CCO [Dasatinib]; details: max 2 µM
Procedure, shortened: as §1

AZD7648 = compound: Cc1cc2ncnn2cc1Nc1ncc2c(n1)n(C1CCOCC1)c(=O)n2C [AZD7648]; details: max 10 µM
Procedure, shortened: as §1

AZD4320 = compound: CN(CC[C@H](CSC1=CC=CC=C1)NC2=C(C=C(C=C2)S(=O)(=O)NC(=O)C3=CC=C(C=C3)N4CCC(CC4)[C@H](C5=CC=CC=C5C6=CC=C(C=C6)Cl)O)S(=O)(=O)C(F)(F)F)CCO [AZD4320]; details: max 1 µM
Procedure, shortened: as §1

SRA737 = compound: N#Cc1cnc(Nc2cc(NC[C@H]3CNCCO3)c(C(F)(F)F)cn2)cn1 [SRA737]; details: max 10 µM
Procedure, shortened: as §1

AZD8186 = compound: C[C@@H](Nc1cc(F)cc(F)c1)c1cc(C(=O)N(C)C)cc2c(=O)cc(N3CCOCC3)oc12 [AZD8186]; details: max 10 µM
Procedure, shortened: as §1

Etoposide = compound: COc1cc([C@@H]2c3cc4c(cc3[C@@H](O[C@@H]3O[C@@H]5CO[C@@H](C)O[C@H]5[C@H](O)[C@H]3O)[C@H]3COC(=O)[C@H]23)OCO4)cc(OC)c1O [Etoposide]; details: max 10 µM
Procedure, shortened: as §1

Alisertib = compound: COc1cc(Nc2ncc3c(n2)-c2ccc(Cl)cc2C(c2c(F)cccc2OC)=NC3)ccc1C(=O)O [Alisertib]; details: max 10 µM
Procedure, shortened: as §1

Doxorubicin = compound: COc1cccc2c1C(=O)c1c(O)c3c(c(O)c1C2=O)C[C@@](O)(C(=O)CO)C[C@@H]3O[C@H]1C[C@H](N)[C@H](O)[C@H](C)O1 [Doxorubicin]; details: max 1 µM
Procedure, shortened: as §1

Row | Cell Line | IC50, cell viability 72 h (Gemcitabine) [nM] | IC50, cell viability 72 h (Carboplatin) [nM] | IC50, cell viability 72 h (SN-38) [nM] | IC50, cell viability 72 h (Paclitaxel) [nM] | IC50, cell viability 72 h (Palbociclib) [nM] | IC50, cell viability 72 h (Venetoclax) [nM] | IC50, cell viability 72 h (MK-2206) [nM] | IC50, cell viability 72 h (Selumetinib) [nM] | IC50, cell viability 72 h (AZD5363) [nM] | IC50, cell viability 72 h (AZD1775) [nM] | IC50, cell viability 72 h (AZD1390) [nM] | IC50, cell viability 72 h (Crizotinib) [nM] | IC50, cell viability 72 h (Savolitinib) [nM] | IC50, cell viability 72 h [1] [nM] | IC50, cell viability 72 h (SG3199) [nM] | IC50, cell viability 72 h (AZD5991) [nM] | IC50, cell viability 72 h (Trametinib) [nM] | IC50, cell viability 72 h (Lapatinib) [nM] | IC50, cell viability 72 h (AZD6738) [nM] | IC50, cell viability 72 h (Olaparib) [nM] | IC50, cell viability 72 h (Prexasertib) [nM] | IC50, cell viability 72 h (Gefitinib) [nM] | IC50, cell viability 72 h (AZD2811) [nM] | IC50, cell viability 72 h (AZD0156) [nM] | IC50, cell viability 72 h (5-Fluorouracil) [nM] | IC50, cell viability 72 h (AZD5153) [nM] | IC50, cell viability 72 h (Taselisib) [nM] | IC50, cell viability 72 h (Dasatinib) [nM] | IC50, cell viability 72 h (AZD7648) [nM] | IC50, cell viability 72 h (AZD4320) [nM] | IC50, cell viability 72 h (SRA737) [nM] | IC50, cell viability 72 h (AZD8186) [nM] | IC50, cell viability 72 h (Etoposide) [nM] | IC50, cell viability 72 h (Alisertib) [nM] | IC50, cell viability 72 h (Doxorubicin) [nM]
1 | SW1710 (Bladder Carcinoma) | > 300 | > 10000 | > 300 | 15.1 | > 10000 | > 1000 | > 10000 | > 10000 | > 10000 | > 3000 | > 300 | > 10000 | > 1000 | > 5000 | > 1 | > 1000 | > 1000 | > 10000 | > 10000 | > 10000 | 86.4 | > 10000 | > 1000 | > 3000 | > 20000 | > 1000 | > 10000 | 190 | > 10000 | > 1000 | > 10000 | > 10000 | > 10000 | > 10000 | > 1000
2 | KS-1 (Glioblastoma) | > 300 | > 10000 | > 300 | 375 | > 10000 | > 1000 | > 10000 | > 10000 | > 10000 | > 3000 | > 300 | > 10000 | > 1000 | > 5000 | > 1 | > 1000 | 927 | > 10000 | > 10000 | > 10000 | 539 | > 10000 | > 1000 | > 3000 | > 20000 | 264 | 3460 | > 2000 | > 10000 | > 1000 | > 10000 | > 10000 | > 10000 | 3510 | > 1000
3 | BE-13 (T-Lymphoblastic Leukemia) | 89.9 | > 10000 | 16.8 | 14.1 | 3380 | > 1000 | 7600 | > 10000 | > 10000 | 161 | > 300 | 585 | > 1000 | > 5000 | > 1 | > 1000 | > 1000 | 8670 | 4780 | > 10000 | 20.1 | > 10000 | 44.1 | > 3000 | > 20000 | 312 | > 10000 | 809 | > 10000 | 99.9 | 3730 | > 10000 | 2340 | 155 | 326
4 | A673 (Ewing's Sarcoma) | 17.8 | > 10000 | 2.59 | 6.99 | > 10000 | > 1000 | > 10000 | > 10000 | > 10000 | > 3000 | > 300 | > 10000 | > 1000 | > 5000 | > 1 | > 1000 | > 1000 | > 10000 | 1980 | > 10000 | 34.4 | > 10000 | 132 | > 3000 | > 20000 | > 1000 | 6720 | > 2000 | > 10000 | 169 | > 10000 | > 10000 | 2270 | 1460 | 284
5 | LS-123 (Colorectal Carcinoma) | > 300 | > 10000 | > 300 | 1210 | > 10000 | > 1000 | > 10000 | > 10000 | > 10000 | 2920 | > 300 | > 10000 | > 1000 | 2730 | > 1 | > 1000 | 395 | > 10000 | > 10000 | > 10000 | 96.4 | > 10000 | > 1000 | > 3000 | > 20000 | > 1000 | 1940 | 557 | > 10000 |  | > 10000 | > 10000 | > 10000 | > 10000 | 611
